From patent US11479802B2, “Assays for screening activity of modulators of members of the hydroxy steroid (17-beta) dehydrogenase (HSD17B) family” (Regeneron Pharmaceuticals, Inc., priority 2017, dated 2022)
Where a name gives a salt, the structure may show the parent alone.

Target: T1, human HSD17B13 (Homo sapiens, UniProt Q7Z5P4)
T1 sequence (Q7Z5P4 20-300): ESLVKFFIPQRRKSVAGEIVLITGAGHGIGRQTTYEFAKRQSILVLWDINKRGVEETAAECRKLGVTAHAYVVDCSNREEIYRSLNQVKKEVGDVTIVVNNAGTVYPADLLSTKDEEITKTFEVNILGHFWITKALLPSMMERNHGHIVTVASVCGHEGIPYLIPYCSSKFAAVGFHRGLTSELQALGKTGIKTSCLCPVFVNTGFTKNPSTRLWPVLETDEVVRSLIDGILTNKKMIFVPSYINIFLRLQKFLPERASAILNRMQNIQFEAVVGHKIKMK
Assay: Substrate screening of steroid and bioactive lipid libraries against purified recombinant HSD17B13 (NADH-linked luciferase assay)
Type: biochemical
Details: for HSD17B13 Enzymatic Activity Relative Light Units: 500 μM NAD+, 100 ng enzyme, 3 hours at 23° C.; for HSD17B13 Enzymatic Activity Percent Estradiol Control: normalized to 50 μM estradiol after subtraction of 5% DMSO
Procedure: To understand the functional consequences of premature truncation of the HSD17B13 protein due to rs72613567:TA (the associated variant, rs72613567, is an insertion of an adenine adjacent to the donor splice site of exon six (TA allele)), the enzymatic activity of isoforms A and D was evaluated in vitro using recombinant protein and nicotinamide […] dinucleotide as cofactor. Reactions were performed in a final volume of 40 μl of assay buffer (0.2 M Tris-HCl, pH 7.5) which contained 500 μM NAD^+, 5 μM bioactive lipid or 50 μM steroid (all in a final concentration of 5% DMSO), and 100 ng of recombinant human HSD17B13. Reactions were incubated for 3 hours, at 23° C., after which an equal volume detection reagent was added. Following a 1 hour incubation at 23° C., the relative light units (RLUs) were measured on an Envision Plate Reader (Perkin Elmer). Raw RLU values were normalized as percent of control (50 μM estradiol) following subtraction of negative control (5% DMSO) using the following formula: Percent of control (POC)=100×(Sample (RLU)−Negative CTRLaverage)/(Positive CTRLaverage−Negative CTRLaverage).

[1] = Bioactive Lipid Library, 5 μM bioactive lipid (Estradiol Control 50 μM)
[2] = Bioactive Lipid Library, 5 μM bioactive lipid

Row | SMILES | HSD17B13 Enzymatic Activity Relative Light Units [1] [RLU] | HSD17B13 Enzymatic Activity Percent Estradiol Control [2] [%] | HSD17B13 Enzymatic Activity Relative Light Units (Steroid Library, 50 μM steroid) [RLU] | HSD17B13 Enzymatic Activity Percent Estradiol Control (Steroid Library, 50 μM steroid) [%]
1 | CCC(O)C(O)C/C=C\C/C=C\C/C=C\C/C=C\CCCC(=O)O (racemic) [(±)17(18)-DiHETE] | 369120 | 3.33 | – | –
2 | CCC1OC1C/C=C\C/C=C\C/C=C\C/C=C\CCCC(=O)O (racemic) [(±)17(18)-EpETE] | 316240 | 2.19 | – | –
3 | CC/C=C\CC(O)/C=C/C=C\C/C=C\C/C=C\C/C=C\CCC(=O)O (racemic) [(±)17-HDHA] | 492440 | 15.29 | – | –
4 | CCC(O)C(O)C/C=C\C/C=C\C/C=C\C/C=C\C/C=C\CCC(=O)O (racemic) [(±)19(20)-DiHDPA] | 827600 | 37.95 | – | –
5 | CC[C@H]1O[C@H]1C/C=C\C/C=C\C/C=C\C/C=C\C/C=C\CCC(=O)O (racemic) [(±)19(20)-EpDPA] | 300600 | 1.38 | – | –
6 | CCC(O)/C=C/C=C\C/C=C\C/C=C\C/C=C\C/C=C\CCC(=O)O (racemic) [(±)20-HDHA] | 1400640 | 82.82 | – | –
7 | CC(C)OC(=O)CCC/C=C/C[C@@H]1[C@@H](/C=C/[C@@H](O)COc2cccc(C(F)(F)F)c2)[C@H](O)C[C@@H]1O (relative stereo) [5-trans Fluprostenol isopropyl ester] | 551400 | 21.21 | – | –
8 | CCCCC/C=C\C[C@@H](O)/C=C/C=C/C=C/[C@@H](O)CCCC(=O)O (relative stereo) [6-trans Leukotriene B4] | 1209480 | 68.61 | – | –
9 | CC/C=C/C[C@H](O)/C=C/[C@@H]1[C@@H](C/C=C\CCCC(=O)O)[C@@H](O)C[C@H]1O (relative stereo) [17-trans Prostaglandin F3α] | 371720 | 7.01 | – | –
10 | CCCCC[C@H](O)/C=C/[C@H]1[C@H](O)CC(=O)[C@@H]1CCCCC(=O)O [2,3-dinor Prostaglandin E1] | 344240 | 4.83 | – | –
11 | CCCCC[C@H](O)/C=C/[C@H]1OC(O)C[C@H](O)[C@@H]1CCCCC(=O)O (some centres unmarked) [2,3-dinor Thromboxane B1] | 364840 | 3.01 | – | –
12 | CCCCC[C@H](O)/C=C/[C@@H]1[C@@H](CC(=O)CCC(=O)O)[C@@H](O)C[C@H]1O [2,3-dinor-6-keto Prostaglandin F1α (sodium salt)] | 341800 | 4.64 | – | –
13 | CCCCC[C@H](O)/C=C/[C@@H]1[C@H](C/C=C\CC(=O)O)[C@@H](O)C[C@H]1O [2,3-dinor-8-iso Prostaglandin F2α] | 230040 | −4.19 | – | –
14 | CCCCC[C@H](O)/C=C/[C@@H]1[C@@H](C/C=C\CC(=O)O)[C@@H](O)C[C@@H]1O [2,3-dinor-11β-Prostaglandin F2α] | 265000 | −1.43 | – | –
15 | C[C@]12CC[C@H]3[C@@H]([C@H]4C[C@H]4[C@]4(O)C[C@@H](O)CC[C@]34C)[C@@H]1[C@@H]1C[C@@H]1C2=O [3b,5-Dihydroxy-6b,7b:15b,16b-dimethylene-5b-androstan17-one] | – | – | 183120 | 0.39
16 | CC/C=C\C/C=C\C/C=C\C/C=C\CC1OC1CCCC(=O)OC (centres unmarked) [5(6)-EpETE methyl ester] | 337400 | 0.93 | – | –
17 | CCCCC/C=C\C\C=C/C=C/C=C/[C@@H](O)[C@@H](O)CCCC(=O)O [5(S),6(R)-DiHETE] | 166040 | 1.66 | – | –

Row | SMILES | HSD17B13 Enzymatic Activity Relative Light Units [1] [RLU] | HSD17B13 Enzymatic Activity Percent Estradiol Control [2] [%] | HSD17B13 Enzymatic Activity Relative Light Units (Steroid Library, 50 μM steroid) [RLU] | HSD17B13 Enzymatic Activity Percent Estradiol Control (Steroid Library, 50 μM steroid) [%]
18 | CCCCC/C=C\C\C=C/C=C/C=C/[C@H](O)[C@@H](O)CCCC(=O)O [5(S),6(S)-DiHETE] | 309080 | 4.07 | – | –
19 | CCCCC[C@H](O)/C=C/C=C\C/C=C\C=C\[C@@H](O)CCCC(=O)O [5(S),15(S)-DiHETE] | 486600 | 14.86 | – | –
20 | CC/C=C\C/C=C\C/C=C\C/C=C\C=C\[C@@H](O)CCCC(=O)O [5(S)-HEPE] | 429120 | 10.58 | – | –
21 | CCCCC/C=C\C/C=C\C/C=C\C=C\[C@@H]1CCCC(=O)O1 [5(S)-HETE lactone] | 288400 | 0.12 | – | –
22 | CCCCC/C=C\C/C=C\C/C=C\C=C\[C@@H](O)CCCC(=O)O [5(S)-HETE] | 430800 | 10.71 | – | –
23 | CCCCC/C=C\C/C=C\C/C=C\C=C\[C@H](CCCC(=O)O)OO [5(S)-HpETE] | 225600 | −4.55 | – | –
24 | CCCCC/C=C\C/C=C\C/C=C\CC#CCCCC(=O)O [5,6-dehydro Arachidonic Acid] | 210160 | −8.68 | – | –
25 | CCCCC/C=C\C/C=C\C/C=C\C=C\C(=O)CCCC(=O)O [5-OxoETE] | 261280 | −1.90 | – | –
26 | CCCCC/C=C\C[C@@H]1[C@H](/C=C/C(O)CCCC(=O)O)[C@@H](O)C[C@H]1O (stereo partly drawn) [5-iPF2α-VI] | 293200 | 0.80 | – | –
27 | C[C@]12CCC(=O)C[C@@H]1CC[C@@H]1[C@@H]2CC[C@]2(C)C(=O)CC[C@@H]12 [5a-androstanedione] | – | – | 181840 | 0.37
28 | CC(=O)OC1=CC[C@H]2[C@@H]3CC[C@H]4CC=CC[C@]4(C)[C@H]3CC[C@]12C [5alpha-Androsta-2,16-dien-17-yl acetate] | – | – | 197640 | 0.65
29 | C[C@]12CCC(=O)C[C@@H]1CC[C@@H]1[C@@H]2C(=O)C[C@]2(C)C(=O)CC[C@@H]12 [5alpha-Androstane-3,11,17-trione] | – | – | 228280 | 1.18
30 | C[C@]12CCC(=O)C[C@@H]1CC[C@@H]1[C@@H]2[C@@H](O)C[C@@]2(C)[C@H]1CC[C@]2(O)C(=O)CO [5alpha-dihydrocortisol] | – | – | 139720 | −0.36
31 | CCCCC[C@H](O)/C=C/C=C\C=C\C=C\[C@H](O)[C@@H](O)CCCC(=O)O [6(S)-Lipoxin A4] | 383000 | 7.90 | – | –
32 | CCCCCC(=O)CC[C@@H]1[C@@H](CC(=O)CCCCC(=O)O)[C@@H](O)C[C@H]1O [6,15-diketo-13,14-dihydro Prostaglandin F1α] | 262680 | −1.61 | – | –
33 | CCCCC/C=C\C/C=C\C[C@H]1O[C@H]1C/C=C\CCCC(=O)NCCO [8(9)-EET Ethanolamide] | 446000 | 9.14 | – | –
34 | CCCCC[C@H](O)/C=C/C=C\C=C\[C@@H](O)C/C=C\CCCC(=O)O [8(S),15(S)-DiHETE] | 410440 | 9.19 | – | –
